For orientation: EC50 means the midpoint of the concentration-response curve.

This note sets out measurements from patent US20230129258A1, “HETEROTANDEM BICYCLIC PEPTIDE COMPLEXES” (BicycleTx Limited, priority 2019, published 2023).

The target in data set [1] is T1, CD137 (Homo sapiens, UniProt Q07011). As to the kind of experiment: CD137 reporter assay (Promega, Jurkat cells) in co-culture with PD-L1-expressing RKO cells. Details: host or cells: Jurkat reporter cells. The conditions noted are these: read-out: Fold Induction over background. The class given is cell-based. The procedure: Culture medium, referred to as R1 media, is prepared by adding 1% FBS to RPMI-1640 (component of Promega kit CS196005). Serial dilutions of test articles in R1 are prepared in a sterile 96 well-plate. Add 25 μL per well of test articles or R1 (as a background control) to designated wells in a white cell culture plate. Tumor cells* are harvested and resuspended at a concentration of 400,000 cells/mL in R1 media. Twenty five (25) μL/well of tumor cells are added to the white cell culture plate. Jurkat cells (Promega kit CS196005, 0.5 mL) are thawed in the water bath and then added to 5 ml pre-warmed R1 media. Twenty five (25) μL/well of Jurkat cells are then added to the white cell culture plate. Incubate the cells and test articles for 6 h at 37° C., 5% CO2. At the end of 6 h, add 75 μL/well Bio-Glo™ reagent (Promega) and incubate for 10 min before reading luminescence in a plate reader (Clariostar, BMG). The fold change relative to cells alone (Jurkat cells+Cell line used in co-culture) is calculated and plotted in GraphPad Prism as log(agonist) vs response to determine EC50 (nM) and Fold Induction over background (Max).
T1 sequence (Q07011 24-255): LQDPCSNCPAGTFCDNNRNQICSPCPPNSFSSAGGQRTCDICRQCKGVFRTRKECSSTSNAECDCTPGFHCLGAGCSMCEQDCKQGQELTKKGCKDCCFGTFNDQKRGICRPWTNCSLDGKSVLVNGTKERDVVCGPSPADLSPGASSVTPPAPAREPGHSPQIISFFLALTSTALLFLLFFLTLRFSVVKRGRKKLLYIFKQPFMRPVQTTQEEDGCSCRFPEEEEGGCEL
The tumor cell types used in co-culture for EphA2 are A549, PC3 and HT29. The tumor cell type used in co-culture for PD-L1 is RKO.

A further data set concerns the target T2, OX40 (Homo sapiens, UniProt P43489).
T2 construct: host or cells: OX40 Jurkat cells
T2 sequence (P43489 29-277): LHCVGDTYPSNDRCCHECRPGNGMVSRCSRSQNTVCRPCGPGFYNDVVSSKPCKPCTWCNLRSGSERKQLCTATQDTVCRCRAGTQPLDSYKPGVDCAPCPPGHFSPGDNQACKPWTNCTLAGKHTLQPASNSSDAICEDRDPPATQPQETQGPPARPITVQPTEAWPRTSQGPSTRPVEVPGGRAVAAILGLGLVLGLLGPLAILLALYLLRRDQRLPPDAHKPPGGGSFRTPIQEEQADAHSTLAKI
Kind of data set: Promega OX40 cell-activity assay (NF-kB luciferase, Jurkat) in co-culture with 4T1-D02 tumor cells. The class given is cell-based. The conditions noted are these: co-culture with Nectin-4 positive 4T1-D02 cells. The procedure:
Promega have developed an OX40 cell-activity assay that uses NF-κB luciferase luminescence as a read-out of OX40 activation in Jurkat cells (Promega CS197704). On the day of the experiment, prepare medium by thawing FBS and adding 5% FBS to RPMI-1640. Thaw OX40 Jurkat cells in the water-bath and then add 500 μl cells to 11.5 ml pre-warmed 5% FBS RPMI-1640 medium. Add 55 μl cells/well to white cell culture plates. Harvest tumor cells from culture. 4T1 is a Nectin-4 negative murine mammary gland epithelial cancer cell and it was genetically modified to express murine Nectin-4 on the cell surface (4T1 Nectin-4 positive; clone 411-D02). Tumor cells were cultured to 80% confluency in vitro in RPM11640 medium supplemented with 10% heat-inactivated FBS, 1× Penicillin/Streptomycin, 1× L-Glutamine, 20 mM HEPES and 1×NEAA (RPMI working medium). Tumor cells were trypsinized and washed two times at 1500 rpm for 5 minutes in RPM11640 working medium prewarmed to 37° C. Count cells and resuspend at 2,000,000 cells/mL in R5 media (for 10,000 cells/well). Add 5 μL of tumor cells per well. […]
Co-incubate cells together with agonists for 6 hours at 37° C., 5% CO2. […] Read luciferase signal on CLAIROStar plate-reader using the MARS program and normalize the fold induction relative to background (medium alone). […]

The test system of data set [2] is 5484 full-length human plasma membrane proteins and secreted proteins expressed in HEK293 cells. As to the kind of experiment: Retrogenix cell microarray off-target screening. The data set is classed as binding. The conditions noted are these: 1 μM test peptide. The procedure: Retrogenix microarray screening: Retrogenix's cell microarray technology was used to screen for specific off-target binding interactions of a biotinylated BCY11863 known as BCY13582.
Under these conditions, the test peptide was screened for binding against human HEK293 cells, individually expressing 5484 full-length human plasma membrane proteins and secreted proteins.
Each primary hit was re-expressed, along with two control receptors (TGFBR2 and EGFR), and re-tested with 1 μM BCY13582 test peptide, 1 μM BCY13582 test peptide in the presence of 100 μM BCY11863, and other positive and negative control treatments (FIG. 4). […] These were untethered and tethered forms of Nectin-4, and CD137—the primary targets.

Data set [3] relates to TNF family receptors OX40 and CD40. As to the kind of experiment: CD137 paralogue screening by SPR. The data set is classed as binding. To be noted: streptavidin captured peptide, soluble receptors. As to the method:
CD137 Paralogue screening: Binding of streptavidin captured BCY13582 (biotinylated-BCY11863) was assessed using SPR against soluble TNF family receptors OX40 and CD40.
Background: SPR reads the build-up and loss of mass on a sensor chip optically.

Data set [4] addresses T1, CD137. As to the kind of experiment: CD137 reporter assay (Promega CD137 luciferase reporter, Jurkat cells) in co-culture with Nectin-4-expressing tumor cells. The class given is cell-based. Further details: host or cells: Jurkat reporter cells. The conditions noted are these: for EC50: Arithmetic mean EC50 (nM). For orientation: Reporter assays use an easily measured gene product as a stand-in for the process of interest.

SMILES strings stand for the structures.

With `CCCC[C@@H]1NC(=O)[C@H](Cc2ccc(O)cc2)NC(=O)[C@@H]2CCCN2C(=O)[C@H](CC(=O)O)NC(=O)[C@H](C)NC(=O)[C@H](Cc2ccccc2)NC(=O)[C@@H]2CSCCC(=O)N3CN(CN(C3)C(=O)CCSC[C@@H](C(=O)N[C@@H](C)C(N)=O)NC1=O)C(=O)CCSC[C@H](NC(C)=O)C(=O)N[C@@H](CC(C)(C)C)C(=O)N1CCC[C@H]1C(=O)N[C@@H](CCC(=O)O)C(=O)N[C@H](CCCCNC(=O)CCc1cn(CCOCCOCCOCCOCCOCCOCCOCCOCCOCCOCCNC(=O)CCOCCN(CCOCCC(=O)NCCOCCOCCOCCOCCOCCOCCOCCOCCOCCOCCn3cc(CCC(=O)NCCCC[C@@H]4NC(=O)[C@H](CCC(N)=O)NC(=O)[C@@H]5CSCCC(=O)N6CN(CN(C6)C(=O)CCSC[C@@H](C(=O)N6CCC[C@H]6C(=O)N[C@@H](CO)C(=O)N[C@@H](Cc6c[nH]cn6)C(N)=O)NC(=O)[C@H](CC(C)C)NC(=O)[C@H](Cc6c[nH]cn6)NC(=O)[C@H](CC(C)C)NC4=O)C(=O)CCSC[C@H](NC(=O)[C@H](CCCCN)NC(=O)[C@H](CC(=O)O)NC(=O)[C@H](CO)NC(C)=O)C(=O)N[C@@H](CO)C(=O)N[C@@H](C)C(=O)NCC(=O)N[C@@H](Cc4c[nH]c6ccccc46)C(=O)N[C@@H](CC(C)C)C(=O)N[C@@H]([C@@H](C)O)C(=O)N[C@@H](CCSC)C(=O)N5)nn3)CCOCCC(=O)NCCOCCOCCOCCOCCOCCOCCOCCOCCOCCOCCn3cc(CCC(=O)NCCCC[C@H]4NC(=O)[C@H](CCC(=O)O)NC(=O)[C@@H]5CCCN5C(=O)[C@H](CC(C)(C)C)NC(=O)[C@@H](NC(C)=O)CSCCC(=O)N5CN6CN(C5)C(=O)CCSC[C@H](NC(=O)[C@H](Cc5ccc(O)cc5)NC(=O)[C@@H]5CCCN5C4=O)C(=O)N[C@@H](Cc4ccccc4)C(=O)N[C@@H](C)C(=O)N[C@@H](CC(=O)O)C(=O)N4CCC[C@H]4C(=O)N[C@@H](Cc4ccc(O)cc4)C(=O)N[C@@H](CCCC)C(=O)N[C@H](C(=O)N[C@@H](C)C(N)=O)CSCCC6=O)nn3)nn1)C(=O)N1CCC[C@H]1C(=O)N[C@@H](Cc1ccc(O)cc1)C(=O)N2` [BCY11780], the fold induction on CD137 [1] is 13.

With `CSCC[C@@H]1NC(=O)[C@@H]2CSCCC(=O)N3CN(CN(C3)C(=O)CCSC[C@H](NC(=O)CCOCCOCCOCCN(CCOCCOCCOCCn3cc(CCC(=O)NCCCC[C@H](NC(=O)[C@H](C)NC(=O)[C@@H]4CSCCC(=O)N5CN6CN(C5)C(=O)CCSC[C@H](NC(=O)[C@@H]5CCCN5C(=O)[C@H](CO)NC(=O)[C@H](Cc5ccc(O)cc5)NC(=O)[C@H](CC(C)C)NC(=O)[C@@H](NC(=O)[C@H](C)N)CSCCC6=O)C(=O)N[C@@H](Cc5c[nH]c6ccccc56)C(=O)N[C@@H](Cc5c[nH]cn5)C(=O)N5CCC[C@H]5C(=O)N[C@@H](CC(C)C)C(=O)N[C@@H](CC(N)=O)C(=O)N[C@@H](CC(=O)O)C(=O)N4)C(N)=O)nn3)CCOCCOCCOCCn3cc(CCC(=O)NCCCC[C@H](NC(=O)[C@H](C)NC(=O)[C@@H]4CSCCC(=O)N5CN6CN(C5)C(=O)CCSC[C@H](NC(=O)[C@@H]5CCCN5C(=O)[C@H](CO)NC(=O)[C@H](Cc5ccc(O)cc5)NC(=O)[C@H](CC(C)C)NC(=O)[C@@H](NC(=O)[C@H](C)N)CSCCC6=O)C(=O)N[C@@H](Cc5c[nH]c6ccccc56)C(=O)N[C@@H](Cc5c[nH]cn5)C(=O)N5CCC[C@H]5C(=O)N[C@@H](CC(C)C)C(=O)N[C@@H](CC(N)=O)C(=O)N[C@@H](CC(=O)O)C(=O)N4)C(N)=O)nn3)C(=O)N3CCC[C@H]3C(=O)N[C@@H](Cc3cccc4ccccc34)C(=O)N[C@H](CC(=O)O)C(=O)N2)C(=O)CCSC[C@@H](C(N)=O)NC(=O)[C@H](Cc2c[nH]c3ccccc23)NC(=O)[C@@H]2C[C@@H](O)CN2C(=O)[C@@H]2CCCN2C(=O)[C@H]([C@@H](C)O)NC(=O)[C@H](CO)NC(=O)[C@H](Cc2c[nH]c3ccccc23)NC(=O)[C@H](CC(=O)O)NC(=O)[C@H](CCCCNC(=N)N)NC1=O` [BCY12967], the OX40 agonism entry on OX40 is “potent OX40 agonism”.

In the case of `CCCC[C@@H]1NC(=O)[C@H](Cc2ccc(O)cc2)NC(=O)[C@@H]2CCCN2C(=O)[C@H](CC(=O)O)NC(=O)[C@H](C)NC(=O)[C@H](Cc2ccccc2)NC(=O)[C@@H]2CSCCC(=O)N3CN(CN(C3)C(=O)CCSC[C@@H](C(=O)N[C@@H](C)C(N)=O)NC1=O)C(=O)CCSC[C@H](NC(C)=O)C(=O)N[C@@H](CC(C)(C)C)C(=O)N1CCC[C@H]1C(=O)N[C@@H](CCC(=O)O)C(=O)N[C@H](CCCCNC(=O)CCc1cn(CCOCCOCCOCCN(CCOCCOCCOCCC(=O)N[C@H]3CSCCC(=O)N4CN5CN(C4)C(=O)CCSC[C@H](NC(=O)[C@@H](CC(=O)O)NC(=O)[C@H](Cc4cccc6ccccc46)NC(=O)[C@@H]4CCCN4C3=O)C(=O)N[C@@H](CCSC)C(=O)N[C@@H](CCCCNC(=N)N)C(=O)N[C@@H](CC(=O)O)C(=O)N[C@@H](Cc3c[nH]c4ccccc34)C(=O)N[C@@H](CO)C(=O)N[C@@H]([C@@H](C)O)C(=O)N3CCC[C@H]3C(=O)N3C[C@H](O)C[C@H]3C(=O)N[C@@H](Cc3c[nH]c4ccccc34)C(=O)N[C@H](C(N)=O)CSCCC5=O)CCOCCOCCOCCn3cc(CCC(=O)NCCCC[C@H]4NC(=O)[C@H](CCC(=O)O)NC(=O)[C@@H]5CCCN5C(=O)[C@H](CC(C)(C)C)NC(=O)[C@@H](NC(C)=O)CSCCC(=O)N5CN6CN(C5)C(=O)CCSC[C@H](NC(=O)[C@H](Cc5ccc(O)cc5)NC(=O)[C@@H]5CCCN5C4=O)C(=O)N[C@@H](Cc4ccccc4)C(=O)N[C@@H](C)C(=O)N[C@@H](CC(=O)O)C(=O)N4CCC[C@H]4C(=O)N[C@@H](Cc4ccc(O)cc4)C(=O)N[C@@H](CCCC)C(=O)N[C@H](C(=O)N[C@@H](CCCCNC(=O)CCOCCOCCOCCOCCOCCOCCOCCOCCOCCOCCOCCOCCNC(=O)CCCC[C@@H]4SC[C@@H]5NC(=O)N[C@@H]54)C(N)=O)CSCCC6=O)nn3)nn1)C(=O)N1CCC[C@H]1C(=O)N[C@@H](Cc1ccc(O)cc1)C(=O)N2` [BCY13582], the specific off-target interactions entry in data set [2] is listed as “No specific off-target interactions”. Besides, in data set [3], the “binding to OX40 and CD40: concentration up to which no binding was seen” value is reported as over 100 nM. The EC50 at CD137 [4] (co-culture with HT1376 (human), Table 1B) is 0.58 ± 0.27 nM; on CD137 [4] (co-culture with MDA-MB-468 (human)) it was 0.34 ± 0.02 nM. In addition, the Emax on CD137 [4] (co-culture with HT1376, Table 2A) was 57 fold induction over background.
